According to ChEMBL document CHEMBL5505987 (Eur J Med Chem, 2024):

Tests used:
Assay type in all cases: functional, cell-based
HeLa = experiment: Cytotoxicity against human HeLa cells assessed as cell viability by MTT assay
A549 = experiment: Cytotoxicity against human A549 cells assessed as cell viability by MTT assay
MDA-MB-231 = experiment: Cytotoxicity against human MDA-MB-231 cells assessed as cell viability by MTT assay
MCF7 = experiment: Cytotoxicity against human MCF7 cells assessed as cell viability by MTT assay

With `O=C1C[C@@H](c2ccccc2)Oc2cc(O)c([C@@H](/C=C/C[C@@H](O)CCc3ccccc3)c3ccccc3)c(O)c21` the IC50 (HeLa) was 0.67 µM, the IC50 (A549) was 3.27 µM and the IC50 (MDA-MB-231) was 1.48 µM. It also gave an IC50 (MCF7) of 4.16 µM.
